These compounds were tested on Utrophin A promoter linked to a luciferase reporter gene (H2K/mdx/Utro A reporter cell line) (assay: Luciferase reporter assay (murine H2K cells)). Settings: Mus musculus; Table 1; murine H2K mdx myoblasts, compound final concentration 10 μM, 48 hrs; read-out: Activity (luciferase reporter assay, relative to control).
Type: cell-based
Procedure: 1. Luciferase Reporter Assay (Murine H2K Cells)
The cell line used for the screen is an immortalized mdx mouse H2K cell line that has been stably transfected with a plasmid containing ≈5 kb fragment of the Utrophin A promoter including the first untranslated exon linked to a luciferase reporter gene (see FIG. 1).
Under conditions of low temperature and interferon containing media, the cells remain as myoblasts. These are plated into 96 well plates and cultured in the presence of compound for three days. The level of luciferase is then determined by cell lysis and reading of the light output from the expressed luciferase gene utilising a plate luminometer.
The H2K/mdx/Utro A reporter cell line was passaged twice a week until ≦30% confluent. The cells were grown at 33° C. in the presence of 10% CO2
The H2K/mdx/Utro A reporter cell line cells were plated out into 96 well plates (Falcon 353296, white opaque) at a density of approximately 5000 cells/well in 190 μl normal growth medium. The plates were then incubated at 33° C. in the presence of 10% CO2 for 24 hrs.
Compounds were dosed by adding 10 μl of diluted compound to each well giving a final concentration of 10 μM. The plates were then incubated for a further 48 hrs
Cells were then lysed in situ following the manufacture's protocols (Promega Steady-Glo Luciferase Assay System (E2520). Then counted for 10 seconds using a plate luminometer (Victorl420).

Structure (SMILES)	activity at 10 µM
CCN(CC)c1ccc(-n2nc3cc(C)c(NC(=O)c4ccncc4)cc3n2)cc1 [Example 13, N-(2-(4-(diethylamino)phenyl)-6-methyl-2H-benzo[d][1,2,3]triazol-5-yl)isonicotinamide]	301 to 400%
CC(=O)Nc1ccc2nn(-c3ccc(Cl)cc3)nc2c1 [Example 39, N-(2-(4-chlorophenyl)-2H-benzo[d][1,2,3]triazol-5-yl)acetamide]	> 401%
CCN(CC)c1ccc(-n2nc3cc(C)c(NC(=O)C(C)C)cc3n2)cc1 [Example 17, N-(2-(4-(diethylamino)phenyl)-6-methyl-2H-benzo[d][1,2,3]triazol-5-yl)isobutyramide]	< 200%
CCCC(=O)Nc1cc2nn(-c3ccc(Cl)cc3)nc2cc1C [Example 8, N-(2-(4-chlorophenyl)-6-methyl-2H-benzo[d][1,2,3]triazol-5-yl)butyramide]	201 to 300%
CCN(CC)c1ccc(-n2nc3ccc(NC(=O)c4ccco4)cc3n2)cc1 [Example 27, N-(2-(4-(diethylamino)phenyl)-2H-benzo[d][1,2,3]triazol-5-yl)furan-2-carboxamide]	< 200%
Cc1cc2nn(-c3ccc(Cl)cc3)nc2cc1NC(=O)C(C)C [Example 10, N-(2-(4-chlorophenyl)-6-methyl-2H-benzo[d][1,2,3]triazol-5-yl)isobutyramide]	201 to 300%
COc1ccccc1C(=O)Nc1cc2nn(-c3ccc(Cl)cc3)nc2cc1C [Example 5, N-(2-(4-chlorophenyl)-6-methyl-2H-benzo[d][1,2,3]triazol-5-yl)-2-methoxybenzamide]	< 200%
CCC(=O)Nc1ccc2nn(-c3ccc(Cl)cc3)nc2c1 [Example 35, N-(2-(4-chlorophenyl)-2H-benzo[d][1,2,3]triazol-5-yl)propionamide]	> 401%
CCC(=O)Nc1cc2nn(-c3ccc(Cl)cc3)nc2cc1C [Example 7, N-(2-(4-chlorophenyl)-6-methyl-2H-benzo[d][1,2,3]triazol-5-yl)propionamide]	< 200%
CS(=O)(=O)c1ccc2cn(-c3ccc(Cl)cc3)nc2c1 [Example 44, 2-(4-chlorophenyl)-6-(methylsulfonyl)-2H-indazole]	201 to 300%
Cc1cc2nn(-c3ccc(Cl)cc3)nc2cc1NC(=O)c1cccnc1 [Example 1, N-(2-(4-chlorophenyl)-6-methyl-2H-benzo[d][1,2,3]triazol-5-yl)nicotinamide]	301 to 400%
CS(=O)(=O)c1ccc2nn(-c3ccc(Cl)cc3)[n+]([O-])c2c1 [Example 47, 2-(4-chlorophenyl)-6-(methylsulfonyl)-2H-benzo[d][1,2,3]triazole 1-oxide]	< 200%
CS(=O)(=O)c1ccc2nn(-c3ccc(Cl)c(Cl)c3)nc2c1 [Example 50, 2-(3,4-dichlorophenyl)-5-(methylsulfonyl)-2H-benzo[d][1,2,3]triazole]	201 to 300%
Cc1cc2nn(-c3ccc(Cl)cc3)nc2cc1NC(=O)c1cccs1 [Example 6, N-(2-(4-chlorophenyl)-6-methyl-2H-benzo[d][1,2,3]triazol-5-yl)thiophene-2-carboxamide]	301 to 400%
CCN(CC)c1ccc(-n2nc3ccc(NC(=O)c4ccc(Cl)cc4)cc3n2)cc1 [Example 32, 4-chloro-N-(2-(4-(diethylamino)phenyl)-2H-benzo[d][1,2,3]triazol-5-yl)benzamide]	< 200%
O=[N+]([O-])c1ccc2cn(-c3ccc(Cl)cc3)nc2c1 [Example 45, 2-(4-chlorophenyl)-6-nitro-2H-indazole]	< 200%
CCCC(=O)Nc1ccc2nn(-c3ccc(Cl)cc3)nc2c1 [Example 36, N-(2-(4-chlorophenyl)-2H-benzo[d][1,2,3]triazol-5-yl)butyramide]	301 to 400%
CCN(CC)c1ccc(-n2nc3ccc(NC(=O)c4ccc(OC)cc4)cc3n2)cc1 [Example 30, N-(2-(4-(diethylamino)phenyl)-2H-benzo[d][1,2,3]triazol-5-yl)-4-methoxybenzamide]	< 200%
CCCCC(=O)Nc1cc2nn(-c3ccc(N(CC)CC)cc3)nc2cc1C [Example 16, N-(2-(4-(diethylamino)phenyl)-6-methyl-2H-benzo[d][1,2,3]triazol-5-yl)pentanamide]	< 200%
CS(=O)(=O)c1ccc2nn(-c3ccc(Cl)cc3)nc2c1 [Example 49, 2-(4-chlorophenyl)-5-(methylsulfonyl)-2H-benzo[d][1,2,3]triazole]	< 200%

From US20100048660A1, “TREATMENT OF DUCHENNE MUSCULAR DYSTROPHY” (priority 2006, published 2010)
